Experimental data reported in patent US20200056988A1, “METHOD OF DETERMINING THE EFFICACY OF ANTIMICROBIALS” (Wisconsin Alumni Research Foundation, priority 2018, published 2020).

System: infection in critically ill and injured adult ICU subjects
Assay: Variation (standard deviation) of exhaled 13CO2/12CO2 breath delta value (BDV) as a marker of response to antimicrobial treatment
Type: in vivo, human
Conditions: single ICU subject of FIG. 15, BAL culture positive for Aspergillus fumigatus; cefuroxime days 1 through 7, cefepime added after day seven
Protocol: The study was conducted as a multi-center prospective study, at four academic research hospitals, to assess exhaled ^13CO2/^12CO2 BDV as an indicator of infection in 20 critically ill and injured adult ICU subjects. Critically ill adult ICU subjects who were not suspected of having an infection at the time of ICU admission were enrolled as study subjects.
Exhaled breath samples were collected upon subject enrollment and every four hours thereafter until the subject was discharged home, transferred to a general care unit/status, or after seven days of breath sample collection, whichever came first. Each sample was collected in four-hour intervals, calculated from the initial sample time, with a window of ±1 hour. Samples collected outside of the specified time interval were still analyzed. […]
Breath samples were shipped to a central laboratory (Isomark, LLC, Madison, Wis.) within 48 hours of final collection from each subject. The breath samples were analyzed using the Canary™ device. The ^13CO2/^12CO2 ratio of each sample was determined from direct measurement and calculated using Pee Dee Belemnite (PDB) as a standard reference: […]
where BDV is expressed as parts per mil (‰). […] The delta over baseline (DOB) was then calculated by subtracting the baseline sample from subsequent samples as described: […]

## CO/N=C(\C(=O)N[C@@H]1C(=O)N2C(C(=O)[O-])=C(C[N+]3(C)CCCC3)CS[C@H]12)c1csc(N)n1 [cefepime]
  mean variation of BDV: 0.37 ‰

## CO/N=C(\C(=O)N[C@@H]1C(=O)N2C(C(=O)O)=C(COC(N)=O)CS[C@H]12)c1ccco1 [cefuroxime]
  mean variation of BDV: 0.72 ‰
